Measurements reported in patent US6015820A, “4-Aryl-thio-pyridin-2(1H)-ones, medicines containing them and their uses in the treatment of illnesses linked to HIV” (priority 1995, dated 2000).

Tests used:
cytotoxicity on PBMC = format: cell-based; settings: human; Table 4; line HIV-1 IIIB/PBMC
Method: (§1) In parallel experiments, the cytotoxicity of the molecules was measured on non-infected cells, after an incubation of 5 days in the presence of these molecules, by using a […] titration (MTT test) based on the ability of the mitochondrial dehydrogenases of the living cells to reduce 3-(4,5-dimethylthiazol-2-yl)-2,5-diphenyltetrazolium bromide in formazan (Mosmann et al. J. Immunol. Methods ([…]), 65, 55-63). The concentration cytotoxic at 50% (CC50) is the concentration at which the DO540 has been reduced to half and is calculated by using the program mentioned above.

PBMC = assay: cytotoxicity on PBMC; format: cell-based; settings: Table 4, 7200 min
Method: as §1

IT of recombinant HIV-1 = target: T1, IT of recombinant HIV-1 (Human immunodeficiency virus type 1 group M subtype B, UniProt P03369); assay: inhibition of the inverse transcriptase of recombinant HIV-1; format: biochemical
T1 construct: purify the IT enzyme of the recombinant HIV-1; made in house; host or cells: yeast cells transformed with the pAB 24/IT-4 vector
Method: Yeast cells transformed with the pAB 24/IT-4 vector were used to purify the IT enzyme of the recombinant HIV-1 as described by Sallafranque-Andreola et al. (1989 Eur. J. Biochem. 184, 364-374).
Incubation was carried out at 37° C. for 10 minutes in the presence of various matrix-primers.
a) Poly C-oligo dG: the reaction mixture contained a final volume of 0.05 ml, Tris-HCl 50 mM pH 8.0, MgCl2 5 mM, dithiothreitol 4 mM, 0.48 A260 /ml of poly C-oligo dG (5:1), 1.0 μCi of [^3 H]dGTP (28 Ci/mmole), dGTP 2 μM, KCl 80 mM, 1 μg of bovine serum albumin and IT 20-50 nM.
b) Poly A-oligo dT: the same conditions as in a), except that 0.48 A260 /ml of poly A-oligo dT (5:1), 0.5 μCi of [^3 H]dTTP (46 Ci/mmole), dTTP 20 μM were used.
The reactions were stopped by adding in the cold 1 ml of 10% trichloroacetic acid plus sodium pyrophosphate 0.1 M. The precipitates were filtered through nitrocellulose membranes, washed with 2% trichloroacetic acid, dried and counted in a PPO/POPOP/toluene scintillation mixture.
All the compounds were dissolved in dimethyl#sulphoxide (DMSO). The test samples were prepared in the presence of the same final concentration of DMSO. IC50 is the concentration required to inhibit the activity of the IT of the recombinant HIV-1 by 50%.

CCc1c(C)[nH]c(=O)c([N+](=O)[O-])c1Sc1cc(C)cc(C)c1 [Compound 7c, 5-ethyl-6-methyl-3-nitro-4-(3', 5'-dimethylphenyl)thio-pyridin-2(1H)-one]
CC50 at 120 h (cytotoxicity on PBMC): > 10 µM | CC50 (PBMC; line HIV-1 6 type D/PBMC): > 10 µM | CC50 (PBMC; line HIV-1 4200 type E/PBMC): > 10 µM | CC50 (PBMC; line HIV-2 D194/PBMC): > 10 µM | IC50 (IT of recombinant HIV-1): 0.03 µM | effect on activity of the IT of HIV-1 in HIV-1/HIV-2 comparison (IT of recombinant HIV-1; FIG. 9): well inhibited | IT inhibition according to matrix-primer couple (IT of recombinant HIV-1; poly C-oligo dG compared with poly A-oligo dT (FIG. 9)): Better inhibition was obtained in the presence of poly C-oligo dG compared with poly A-oligo dT
